Data published in US20020028188A1, “Method of preparing particularly skin-compatible cosmetic or dermatological cleansing preparations” (priority 1999, published 2002).

Tested on: surface of the skin
Assay: adsorption of lauryl ether sulfate on the skin (simulated washing operation, forearm, desorption, ion-pair chromatography)
Type: in vivo, human
Conditions: significance: Yes
Description: The method which we have developed for determining the adsorption of lauryl ether sulfate on the skin simulates a washing operation as occurs, for example, during daily showering: Firstly, the inner sides of the forearms are divided into a number of test areas using insulating tape. The area to be treated is then wetted with approximately 50 ml of mains water (T=38±1° C.). The lauryl ether sulfate is then applied. Throughout the application period of 45 s, the test subject distributes the lauryl ether sulfate over the area using 2 fingers in uniform circular movements. At the end of the application period, the test area is rinsed with approximately 950 ml of mains water (T=38±1° C.) and carefully patted dry using a clean cellulose cloth. For the desorption, a plastic ring with an internal diameter of 25 mm is pressed firmly onto the inner side of the test subject's forearm. 1000 μl of a 1% Triton X-100 solution are then introduced into the ring. The tip of a round Teflon-coated spatula is then used to scrape the skin uniformly for 1 min. This leads to suspension of corneocytes. To work up the samples for analysis, the samples are centrifuged and 800 μl of the supernatant are drawn off. The supernatant is analyzed with regard to its lauryl ether sulfate content using ion-pair chromatography. The effectiveness of the desorption method described is 79%, i.e. 79% of the amount of lauryl ether sulfate actually present on the skin are included.

[1] = cosurfactant concentration 3% added to a lauryl ether sulfate solution

Molecule: Disodium laureth sulfosuccinate
- Effect on the adsorbed amount of lauryl ether sulfate (Reduction by) [1]: Reduction by 28%

Molecule: CCCCCCCCCCO[C@@H]1O[C@H](CO)[C@@H](O)[C@H](O)[C@H]1O [Decyl glucoside]
- Effect on the adsorbed amount of lauryl ether sulfate (Reduction by) (cosurfactant concentration 5% added to a lauryl ether sulfate solution): Reduction by 29%

Molecule: Sodium cocoamphoacetate
- Effect on the adsorbed amount of lauryl ether sulfate (Reduction by) [1]: Reduction by 27%

Molecule: Cocamidopropylbetaine
- Effect on the adsorbed amount of lauryl ether sulfate (Reduction by) [1]: Reduction by 31%

Molecule: CCCCCCCCCCCC(=O)O [Lauric acid]
- Effect on the adsorbed amount of lauryl ether sulfate (Reduction by) (cosurfactant concentration 1%, pH9, added to a lauryl ether sulfate solution): Reduction by 15%
